System: Plasmodium falciparum
Experiment: GSK_TCMDC: Inhibition of Plasmodium falciparum 3D7 in whole erythrocytes, using parasite LDH activity as an index of growth.
Type: functional, organism-based

Row | Structure (SMILES) | XC50 (Plasmodium falciparum, 3D7) [nM] | XC50 [nM]
1 | COC(=O)c1cccc(CNCc2cccc(-c3ccc(-c4nc5cc(C(F)(F)F)ccc5[nH]4)cc3)c2)c1 | 257 | –
2 | C=CCOC(=O)N1CCC(CNCc2cccc(-c3cccc(-c4nc5cccc(C)c5[nH]4)c3)c2)C1 (stereo unspecified) | 109 | –
3 | CNC(=O)c1cc(Nc2nnc(-c3ccc(C)c(S(=O)(=O)NC4CCCCC4)c3)c3ccccc23)ccc1OC | 904 | –
4 | CN1CCN(c2ccc3[nH]c(-c4ccc5[nH]c(-c6ccc([N+](=O)[O-])c(N)c6)nc5c4)nc3c2)CC1 | 105 | –
5 | COc1ccc(Cl)cc1NC(=O)C(C)Nc1ccc(-c2ccccc2)cc1 (stereo unspecified) | 556 | –
6 | COc1cc(F)c2nccc([C@@H](O)CN3CCC(NCc4ccc5c(n4)NC(=O)CS5)C(F)C3)c2c1 (stereo partly specified) | 1170 | –
7 | COc1ccc2ncc(C#N)c(CCN3CCC(NCc4ccc5c(n4)NC(=O)CS5)CC3)c2n1 | 836 | –
8 | CCCCCCCn1c(=N)n(CC(O)c2ccc(Cl)c(Cl)c2)c2ccccc21 (stereo unspecified) | 782 | –
9 | c1ccc(Oc2ccc(Nc3ccnc(Nc4ccc(OCCN5CCCCC5)cc4)n3)cc2)cc1 | 604 | –
10 | COc1ccccc1N1CCN(Cc2c(NC(C)=O)sc(C)c2C)CC1 | 425 | –
11 | CCc1cccc(NC(=O)c2ccc(CN3CCCN(CC4CCCCC4)CC3)cc2)c1 | 402 | –
12 | O=C(NCCN1CCCC1)N1CCCN(c2ncnc3cc(-c4ccc(Cl)cc4)sc23)CC1 | 918 | –
13 | CCN(CCCN1CCCCC1)c1cc(C)nc(Nc2ccc(C)c(Br)c2)n1 | 248 | –
14 | COc1cc(CNC2Cc3ccccc3C2)ccc1Oc1ccc2nc[nH]c2c1 | 949 | –
15 | O=C1CCCN1CCCNCc1cccc(-c2ccc(-c3nc4cc(C(F)(F)F)ccc4[nH]3)s2)c1 | 448 | –
16 | COc1ccc(NC(=O)c2ccc(Br)c(C)c2)cc1N1CCN(CCCc2c[nH]c3ccccc23)CC1 | 382 | –
17 | CCOc1ccc(NC(=O)c2ccc(CN3CCCN(Cc4cccc(O)c4)CC3)cc2)cc1 | 1310 | –
18 | COc1cc(C(=O)N2CCN(C(C)C)CC2)ccc1CN(C)CCCN1CCN(c2cccc(Cl)c2Cl)CC1 | 776 | –
19 | O=C(/C=C/c1ccc(Cl)c(Cl)c1)NCCCCCN1CCCN(C(=O)Nc2cccc(Cl)c2)CC1 | 669 | –
20 | Cc1noc(C)c1-c1ccc2c(Nc3cccc4c3-c3ccccc3C4=O)c(C(=O)NCc3ccccc3I)cnc2c1 | 627 | –
21 | COc1ccc2nccc([C@@H](O)CN3CCC(NC(=O)C(=O)c4c[nH]c5c(C)cccc45)CC3)c2c1 | 307 | –
22 | CN1C(=O)C(=NN=C(S)N2CCOCC2)c2ccccc21 | 901 | –

Row | Structure (SMILES) | XC50 (Plasmodium falciparum, 3D7) [nM] | XC50 [nM]
23 | CCCc1ccc2c(c1O)CCC(N(CCC)CCC)C2 (stereo unspecified) | 886 | –
24 | CS(=O)(=O)Nc1ccc2c(C3CCN(CCC4CCN(C(=O)/C=C/c5ccc(Cl)c(Cl)c5)CC4)CC3)c[nH]c2c1 | 599 | –
25 | c1ccc(CCNc2nc(NCC(c3ccccc3)c3ccccc3)c3nc[nH]c3n2)cc1 | 617 | –
26 | O=C(/C=C/c1ccc(Cl)c(Cl)c1)NC1CCC(N2CCC(c3c[nH]c4ccc(O)cc34)CC2)CC1 (stereo unspecified) | 921 | –
27 | COc1ccc(C(=O)Nc2ccc3oc(-c4ccc(C(F)(F)F)cc4)cc3c2)cc1CCCN(C)C | 698 | –
28 | CNCCNCc1ccc(-c2ccc(-c3nc4cc(C(F)(F)F)ccc4[nH]3)s2)cc1 | 604 | –
29 | Cc1nnc2c(NC(=O)NC3CCCC3)cc3ccc(-c4cccc(CN(C)C)c4)cc3n12 | 1160 | –
30 | Cc1nc(N)nc(N)c1-c1ccc(Br)c(Br)c1 | 53.6 | –
31 | O=C(NCCCN1CCCC1=O)NCc1ccccc1 | 816 | –
32 | CCOCCCn1c(=N)c(C(=O)NC(C)c2ccccc2)cc2c(=O)n3cccc(C)c3nc21 (stereo unspecified) | 1200 | –
33 | COc1ccccc1N1CCN(Cc2c(O)ccc3cc(Br)ccc23)CC1 | 1150 | –
34 | COc1ccc2c(NN=Cc3ccc(N(C)C)cc3)ccnc2c1 | 663 | –
35 | CCN1CCN(c2cc(C)c3cc(NC(=O)c4ccc(OC)c([N+](=O)[O-])c4)ccc3n2)CC1 | 553 | –
36 | CN(C)c1ccc(-c2csc(C(=O)NCC3CCN(CCC(C)(C)C)C3)c2)cc1 (stereo unspecified) | 1500 | –
37 | CN(C(=O)Nc1ccc(F)cc1)C1CCN(CCCCCNC(=O)/C=C/c2ccc(Cl)c(Cl)c2)CC1 | 886 | –
38 | COc1ccc(NC(=O)NC2CCN(c3ccnc4ccccc34)C2)cc1 (stereo unspecified) | 875 | –
39 | CCC(CC)N1CCN(CC(=O)Nc2ccc([N+](=O)[O-])cc2C(=O)Nc2cccc(OC)c2)CC1 | 866 | –
40 | O=C(/C=C/c1ccc(Cl)c(Cl)c1)NCCCCCN1CCC(NC(=O)Nc2ccc(F)cc2F)CC1 | 739 | –
41 | Nc1nc(N)c2c(ccc3c2ccn3CC2CC2)n1 | 211 | –
42 | COc1ccc(Nc2nc(N/N=C/c3ccc(O)cc3)nc(Nc3ccc([N+](=O)[O-])cc3)n2)cc1 | 1120 | –
43 | COCCN1CCC(CN(C)CC(C)(C)c2nc(-c3ccc(Cl)c(O)c3)c(-c3ccncc3)[nH]2)CC1 | 1030 | –
44 | COc1cc(NCCCNCc2cn(S(=O)(=O)c3ccccc3)c3ccccc23)nc2ccccc12 | 386 | –

Row | Structure (SMILES) | XC50 (Plasmodium falciparum, 3D7) [nM] | XC50 [nM]
45 | O=[N+]([O-])c1cc(/C=N/Nc2nc3ccccc3[nH]2)ccc1O | 954 | –
46 | CCc1ccc(-c2nc3cc(NC(=O)c4cc([N+](=O)[O-])cc([N+](=O)[O-])c4)ccc3o2)cc1 | 932 | –
47 | Cc1ccc(-c2cc(C(=O)Nc3ccc(S(=O)(=O)N4CC(C)OC(C)C4)cc3)[nH]n2)c(O)c1 (stereo unspecified) | 608 | –
48 | CCOc1ccc2nccc([C@@H](O)[C@@H]3C[C@@H]4CCN3C[C@@H]4CC)c2c1 [ETHYLHYDROCUPREINE] | – | 612
49 | CC(C)N1CCC(N(Cc2ccc(-c3ccc(C(F)(F)F)cc3)cc2)C(=O)Cn2c(SCc3cccc(F)c3F)cc(=O)c3ccccc32)CC1 | 817 | –
50 | CCN(c1ccc(O)c(CN2CCCCC2)c1)c1ccc([N+](=O)[O-])cn1 | 886 | –
51 | CC[C@H]1CN2CC[C@@H]1C[C@H]2[C@H](O)c1ccnc2ccc(Cl)cc12 | 119 | –
52 | CN(C(=O)c1snnc1-c1ccccc1)C1CCN(CCCCCNC(=O)/C=C/c2ccc(Cl)c(Cl)c2)CC1 | 186 | –
53 | Cc1ccc(-c2cc3nc4c(c(NCCCn5ccnc5)n3n2)CCC4)cc1 | 925 | –
54 | Cc1[nH]c2ccccc2c1C(=O)C(C)Sc1nnc(-c2ccccc2F)o1 (stereo unspecified) | 691 | –
55 | CCOc1cc(C(=O)NC2CC(C)(C)N(C)C(C)(C)C2)ccc1-c1nc2cc(Cl)c(Cl)cc2[nH]1 | 861 | –
56 | CC1Cc2ccccc2N1S(=O)(=O)c1cccc(C(=O)Nc2nc(-c3ccccn3)cs2)c1 (stereo unspecified) | 1320 | –
57 | Cc1nc2nc(N)nc(N)c2c(C)c1Cc1ccc(N)cc1 | 644 | –
58 | Cc1cc(N)c2cc(NC(=O)c3ccc4ccccc4c3)ccc2n1 | 254 | –
59 | COc1cc(Cc2cnc(N)nc2N)cc(OCCCCCCC(=O)O)c1OC | 937 | –
60 | O=C(/C=C/c1ccc(Cl)c(Cl)c1)NCCCCCN1CCC(NC(=O)NC2CCCCCC2)CC1 | 464 | –
61 | NC(=S)Cc1ccc2c(c1)OCO2 | 284 | –
62 | CC1(C)NC(N)=NC(=N)N1OCc1cc(Cl)c(Cl)cc1CON1C(=N)N=C(N)NC1(C)C | 14.6 | –
63 | CC(=O)Nc1ccc(Nc2c3ccccc3nc3ccccc23)cc1 | 1020 | –
64 | Cc1cccc2nc(-c3cccc(-c4ccc(NC(=O)NCc5ccccc5)cc4)c3)[nH]c12 | 231 | –
65 | O=C(Nc1ccc2c(c1)OCO2)NC1CCN(c2ccnc(Nc3ccc(F)cc3)n2)C1 (stereo unspecified) | 743 | –
66 | Nc1nc(N)c2c(ccc3nn(Cc4cccnc4)cc32)n1 | 355 | –

Row | Structure (SMILES) | XC50 (Plasmodium falciparum, 3D7) [nM] | XC50 [nM]
67 | Cc1ccc(C(=O)Nc2ccc(F)c(F)c2F)cc1S(=O)(=O)N1CCCCC1 | 763 | –
68 | COc1ccccc1-n1c(SCC(=O)c2ccc3c(c2)CC(=O)N3C)nnc1-c1cccs1 | 963 | –
69 | CC(CN(C)C)C(=O)Nc1ccc(-c2csc(-c3nc4ccccc4[nH]3)c2)cc1 (stereo unspecified) | 1320 | –
70 | O=C(Nc1ccc(-c2cccc(-c3nc4ccccc4[nH]3)c2)cc1)NC1CC1c1ccccc1 (stereo unspecified) | 630 | –
71 | CN(CCN1CCC(c2c[nH]c3ccccc23)CC1)C(=O)OCCCCCNC(=O)/C=C/c1ccc(Cl)c(Cl)c1 | 678 | –
72 | COc1ccc(C)c(Nc2ccnc(Nc3cccc(-c4nc5ccccc5[nH]4)c3)n2)c1 | 716 | –
73 | NC(=O)c1cccc(CN2Cc3ccccc3OC3(CCN(Cc4c[nH]c5cnccc45)CC3)C2)c1 | 1060 | –
74 | CC(C)CCCC(C)(C)NC[C@@H](O)[C@H](Cc1ccccc1)NC(=O)c1cc(NC(C)C)cc(N2CCCCS2(=O)=O)c1 | 206 | –
75 | CC(=O)c1c(Cc2ccccc2Cl)c[nH]c1C | 848 | –
76 | COc1ccc2[nH]ccc(=NN=Cc3cccnc3)c2c1 | 501 | –
77 | CC[C@H](NC(=O)c1c(N)c(-c2sccc2Cl)nc2ccccc12)c1ccccc1 | 912 | –
78 | COc1ccccc1C1CCN(C2CCC(NC(=O)/C=C/c3cccc(C(F)(F)F)c3)CC2)CC1 (stereo unspecified) | 806 | –
79 | O=C(NCc1ccc(Cl)c(Cl)c1)c1ccc(-c2nc3ccc(Cl)cc3[nH]2)cc1 | 905 | –
80 | N#Cc1cccc(CNC(=O)c2cccc(Nc3ccnc4ccc(F)cc34)c2)c1 | 987 | –
81 | CCN(CCCN1CCCCC1)c1cc(C)nc(Nc2ccc(Oc3ccccc3)cc2)n1 | 298 | –
82 | Cc1cc(C(=O)N[C@H]2CCN(Cc3ccc(OCCCN(C)C)cc3)C2)ccc1Br | 898 | –
83 | CCCCCCc1cc2cc(-c3csc(C=Cc4ccccc4)n3)c(=O)oc2cc1O | 970 | –
84 | CCN1CCN(c2ccc(NC(=O)c3cc4c(C)nn(-c5ccccc5)c4s3)cc2C)CC1 | 757 | –
85 | Oc1ccc2[nH]c(-c3cccc(F)c3)nc2c1CN1CCC(N2CCCC2)CC1 | 184 | –
86 | Cc1cc(-c2cccc(CNCc3ccc(F)cc3)c2)ccc1S(=O)(=O)NCCN1CCCC1 | 732 | –
